Experimental data taken from US9428504B2, “7-hydroxy-spiropipiperidine indolinyl antagonists of P2Y1 receptor” (BRISTOL-MYERS SQUIBB COMPANY, priority 2012, dated 2016).
Where a name gives a salt, the structure may show the parent alone. Read-outs that look alike come from different tables or passages of the source.

Assays:
[1] = target: T1, cloned human P2Y1 receptors (Homo sapiens (Human), UniProt P47900); test: Binding Assay A: membrane binding assay, [33P] 2MeS-ADP
Text: A membrane binding assay was used to identify inhibitors of [^33P] […] The cDNA clone for human P2Y1 was obtained from Incyte Pharmaceuticals and its sequence confirmed by established techniques (for a compendium of techniques used see Ausubel, F. et al. Current Protocols in Molecular Biology, John Wiley and Sons, NY, N.Y. (1995)). The essential coding sequences were subcloned into pCDNA 3.1 (Invitrogen) to produce a P2Y1 expression construct. This construct was then transfected into the human embryonic kidney cell line HEK-293 and stable transfectants selected in GENETICIN® (G418 sulfate; Life Technologies). […] Membranes were prepared by growing HEK293 #49 in 150 mm dishes in DMEM/10% FBS in the presence of 1 mg/ml G418 until cells were 80-90% confluent. Plates were then washed with cold (4° C.) D-PBS twice and cells harvested by scraping into 10 mL D-PBS. Cells were pelleted by centrifugation (1,000 g, 10 min, 4° C.) and the resulting pellet resuspended in Lysis Buffer (10 mM Tris (7.4), 5 mM MgCl2 containing Complete protease inhibitor cocktail (Roche Cat #1873580) as recommended by the manufacturer). The suspension was then homogenized in a Dounce homogenizer (10-15 strokes; B pestle, on ice) and the homogenate spun at 1,000 g, 4° C., 5 min to pellet large debris. The supernatant was centrifuged at 150,000 g, 4° C., for 1 hour and the resulting membrane pellet resuspended in 0.5-1 mL of Buffer B (15 mM HEPES (7.4), 145 mM NaCl, 0.1 mM MgCl2, 5 mM EDTA, 5 mM KCl) and stored at −70° C. until used.
Binding reactions were performed in WGA FLASHPLATE®s (PerkinElmer Life Sciences, Cat # SMP105A) in a volume of 200 μL containing ˜45 fmol of P2Y1 receptor (5 μg of total protein), 0.5 nM [^33P] […] Reactions were allowed to proceed to completion at room temperature for 1 hour and then the aqueous solution aspirated. Plates were sealed and the residual [^33P] bound to the plate determined by scintillation counting.

[2] = tested on: human platelet rich plasma (PRP); test: ADP induced platelet aggregation assay
[3] = target: T1, cloned human P2Y1 receptors; test: Binding Assay B: Scintillation Proximity Assay (SPA) for P2Y1 binding; settings: SPA, [33P] 2MeS-ADP displacement; read-out: P2Y1 Ki (nM) using binding assay B
Method in brief: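 Scintillation proximity readout of 0.3 nM [^33P] tracer displacement from receptor membranes (~15 fmol receptor, 1.7 μg protein). Binding ran 1 h at room temperature to completion; plates were then centrifuged and aqueous phase aspirated before counting.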

[4] = values marked *, WGA FlashPlate, [33P] 2MeS-ADP displacement, read-out: P2Y1 Ki (nM) *Using binding assay A
[5] = Homo sapiens, Platelet, read-out: PA IC50 (μM) @ 10 μM ADP, platelet aggregation induced by 10 μM ADP, human PRP
[6] = read-out: PA IC50 (μM) @ 10 μM ADP, platelet aggregation induced by 10 μM ADP, human PRP

T1 sequence (P47900 whole entry): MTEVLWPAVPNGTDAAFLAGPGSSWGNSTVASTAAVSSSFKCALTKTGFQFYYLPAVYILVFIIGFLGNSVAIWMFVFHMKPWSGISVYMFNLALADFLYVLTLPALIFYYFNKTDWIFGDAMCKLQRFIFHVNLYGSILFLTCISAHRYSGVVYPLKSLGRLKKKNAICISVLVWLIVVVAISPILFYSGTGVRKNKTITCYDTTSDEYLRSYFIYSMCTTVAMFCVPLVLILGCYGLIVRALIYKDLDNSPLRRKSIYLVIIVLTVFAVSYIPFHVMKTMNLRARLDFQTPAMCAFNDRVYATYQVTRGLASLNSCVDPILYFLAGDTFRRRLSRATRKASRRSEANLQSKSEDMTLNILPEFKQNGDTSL

| Structure (SMILES) | Ki [1, 4] | IC50 [2, 5] | Ki [3] | IC50 [2, 6] | Ki [1] |
| --- | --- | --- | --- | --- | --- |
| CC(C)N1CCC2(CC1)CN(c1ccccc1NC(=O)Nc1ccc(OC(F)(F)F)cc1)c1ccccc12 [Comparator 1, reference compound] | 300 nM | 29.2 µM | – | – | – |
| CC(C)CN1CCC2(CC1)CN(c1ccccc1NC(=O)Nc1ccc(OC(F)(F)F)cc1)c1ccccc12 [Comparator 2, reference compound] | 20.2 nM | 8.8 µM | – | – | – |
| CC(C)N1CCC2(CC1)CN(c1ncccc1NC(=O)Nc1ccc(OC(F)(F)F)cc1)c1ccccc12 [Comparator 3, reference compound] | 5300 nM | – | – | – | – |
| CC(C)(C)CN1CCC2(CC1)CN(c1ccccc1NC(=O)Nc1ccc(OC(F)(F)F)cc1)c1c(O)cccc12 [Example 1, 1-(2-(7-Hydroxy-1′-neopentylspiro[indoline-3,4′-piperidine]-1-yl)phenyl)-3-(4-(trifluoromethoxy)phenyl)urea] | 10.3 nM | 1.7 µM | – | – | – |
| CC(C)(C)CN1CCC2(CC1)CN(c1ncccc1NC(=O)Nc1ccc(C(C)(C)C)cc1)c1c(O)ccc(C(F)(F)F)c12 [Example 13, 1-(4-tert-Butylphenyl)-3-(2-(7-hydroxy-1′-neopentyl-4-(trifluoromethyl)spiro[indoline-3,4′-piperidine]-1-yl)pyridin-3-yl)urea] | 3.3 nM | 0.5 µM | – | – | – |
| CC(C)(C)CN1CCC2(CC1)CN(c1ccccc1NC(=O)Nc1nc3ccc(Cl)cc3s1)c1c(O)ccc(F)c12 [Example 33, 1-(2-(7-Hydroxy-4-fluoro-1′-neopentylspiro[indoline-3,4′-piperidine]-1-yl)phenyl)-3-(6-chlorobenzo[d]thiazol-2-yl)urea] | 3.7 nM | 0.4 µM | – | – | – |
| Cc1ccc2nc(NC(=O)Nc3ccccc3N3CC4(CCN(CC(C)(C)C)CC4)c4c(F)ccc(O)c43)sc2c1 [Example 34, 1-(2-(7-Hydroxy-4-fluoro-1′-neopentylspiro[indoline-3,4′-piperidine]-1-yl)phenyl)-3-(6-methylbenzo[d]thiazol-2-yl)urea] | 3.7 nM | 0.5 µM | – | – | – |
| CC(C)c1nsc(NC(=O)Nc2ccccc2N2CC3(CCN(CC(C)(C)C)CC3)c3c(F)ccc(O)c32)n1 [Example 35, 1-(2-(4-Fluoro-7-hydroxy-1′-neopentylspiro[indoline-3,4′-piperidine]-1-yl)phenyl)-3-(3-isopropyl-1,2,4-thiadiazol-5-yl)urea] | 1.9 nM | 0.3 µM | – | – | – |
| Cc1nsc(NC(=O)Nc2ccccc2N2CC3(CCN(CC(C)(C)C)CC3)c3c(Cl)ccc(O)c32)n1 [Example 42, 1-(2-(4-Chloro-7-hydroxy-1′-neopentylspiro[indoline-3,4′-piperidine]-1-yl)phenyl)-3-(3-methyl-1,2,4-thiadiazol-5-yl)urea] | 3.3 nM | 0.3 µM | – | – | – |
| CC(C)c1nsc(NC(=O)Nc2ccccc2N2CC3(CCN(CC(C)(C)C)CC3)c3c(Cl)ccc(O)c32)n1 [Example 43, 1-(2-(4-Chloro-7-hydroxy-1′-neopentylspiro[indoline-3,4′-piperidine]-1-yl)phenyl)-3-(3-isopropyl-1,2,4-thiadiazol-5-yl)urea] | 4.4 nM | 0.3 µM | – | – | – |
| CC(C)(C)CN1CCC2(CC1)CN(c1ccccc1NC(=O)Nc1nc3ccc(Cl)cc3s1)c1c(O)cccc12 [Example 75, 1-(6-Chlorobenzo[d]thiazol-2-yl)-3-(2-(7-hydroxy-1′-neopentylspiro [indoline-3,4′-piperidine]-1-yl)phenyl)urea] | 7.5 nM | 0.4 µM | – | – | – |
| CC(C)(C)CN1CCC2(CC1)CN(c1ccccc1NC(=O)Nc1nc3ccc(Cl)nc3s1)c1c(O)ccc(Cl)c12 [Example 166, 1-(2-(4-Chloro-7-hydroxy-1′-neopentylspiro[indoline-3,4′-piperidine]-1-yl)phenyl)-3-(5-chlorothiazolo[5,4-b]pyridin-2-yl)urea] | – | – | 6.8 nM | 0.1 µM | – |
| CC(C)(C)CN1CCC2(CC1)CN(c1ccccc1NC(=O)Nc1nc3ccc(Cl)nc3s1)c1c(O)ccc(Cl)c12 [Example 167, 1-(2-(4-Chloro-7-hydroxy-1′-neopentylspiro[indoline-3,4′-piperidine]-1-yl)phenyl)-3-(5-chlorothiazolo[5,4-b]pyridin-2-yl)urea, methanesulfonic acid salt] | – | – | – | 0.5 µM | 3.3 nM |
| CC(C)(C)CN1CCC2(CC1)CN(c1ccccc1NC(=O)Nc1nc3ccc(Cl)nc3s1)c1c(O)ccc(F)c12 [Example 168, 1-(5-Chlorothiazolo[5,4-b]pyridin-2-yl)-3-(2-(4-fluoro-7-hydroxy-1′-neopentylspiro-[indoline-3,4′-piperidine]-1-yl)phenyl)urea] | – | 0.3 µM | 8.6 nM | – | – |
| COc1ccc2nc(NC(=O)Nc3ccccc3N3CC4(CCN(CC(C)(C)C)CC4)c4c(Cl)ccc(O)c43)sc2n1 [Example 169, 1-(2-(4-Chloro-7-hydroxy-1′-neopentylspiro[indoline-3,4′-piperidine]-1-yl)phenyl)-3-(5-methoxythiazolo[5,4-b]pyridin-2-yl)urea] | – | 0.2 µM | 11.5 nM | – | – |
| CC(C)(C)CN1CCC2(CC1)CN(c1ccccc1NC(=O)Nc1nc3ccc(F)nc3s1)c1c(O)ccc(Cl)c12 [Example 170] | – | 0.5 µM | 6.5 nM | – | – |
| CC(C)(C)CN1CCC2(CC1)CN(c1ccccc1NC(=O)Nc1nc3ccc(Cl)nc3s1)c1c(O)cccc12 [Example 172, 1-(5-Chlorothiazolo[5,4-b]pyridin-2-yl)-3-(2-(7-hydroxy-1′-neopentylspiro[indoline-3,4′-piperidine]-1-yl)phenyl)urea] | – | 0.6 µM | 5.3 nM | – | – |
| COc1ccc2nc(NC(=O)Nc3ccccc3N3CC4(CCN(CC(C)(C)C)CC4)c4c(F)ccc(O)c43)sc2n1 [Example 173, 1-(2-(4-Fluoro-7-hydroxy-1′-neopentylspiro[indoline-3,4′-piperidine]-1-yl)phenyl)-3-(5-methoxythiazolo[5,4-b]pyridin-2-yl)urea] | – | 0.3 µM | 3.8 nM | – | – |
| CC(C)(C)CN1CCC2(CC1)CN(c1ccccc1NC(=O)Nc1nc3ccc(F)nc3s1)c1c(O)ccc(F)c12 [Example 174, 1-(2-(4-Fluoro-7-hydroxy-1′-neopentylspiro[indoline-3,4′-piperidine]-1-yl)phenyl)-3-(5-fluorothiazolo[5,4-b]pyridin-2-yl)urea] | – | 0.2 µM | 7 nM | – | – |
| CC(C)(C)CN1CCC2(CC1)CN(c1ccccc1NC(=O)Nc1nc3ccc(Cl)nc3s1)c1c(O)ccc(C(F)(F)F)c12 [Example 175, 1-(5-Chlorothiazolo[5,4-b]pyridin-2-yl)-3-(2-(7-hydroxy-1′-neopentyl-4-(trifluoromethyl)spiro[indoline-3,4′-piperidine]-1-yl)phenyl)urea] | – | 0.5 µM | 13.4 nM | – | – |
| CC(C)(C)CN1CCC2(CC1)CN(c1ncccc1NC(=O)Nc1nc3ccc(Cl)nc3s1)c1c(O)ccc(C(F)(F)F)c12 [Example 176, 1-(5-Chlorothiazolo[5,4-b]pyridin-2-yl)-3-(2-(7-hydroxy-1′-neopentyl-4-(trifluoromethyl)spiro[indoline-3,4′-piperidine]-1-yl)pyridin-3-yl)urea] | – | 0.4 µM | 7.2 nM | – | – |
